Experimental data taken from PubChem BioAssay (NCI).
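How tested: cells in 96-well plates exposed to compound for 48 hours at five concentrations. GI50 marks 50% less growth. TGI: concentration producing complete growth inhibition.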

Assays:
Assay in all cases: NCI tumour cell line growth inhibition, 48 h
[1] = system: A498 renal
[2] = system: KM12 colon
[3] = system: CCRF-CEM leukemia
[4] = system: IGROV1 ovarian
[5] = system: MDA-MB-231 breast
[6] = system: SK-MEL-28 melanoma
[7] = system: SK-MEL-2 melanoma
[8] = system: MCF7 breast
[9] = system: RXF 393 renal
[10] = system: HL-60(TB) leukemia
[11] = system: ACHN renal
[12] = system: TK-10 renal
[13] = system: OVCAR-5 ovarian
[14] = system: HOP-62 NSCLC
[15] = system: EKVX NSCLC
[16] = system: SK-MEL-5 melanoma
[17] = system: SW-620 colon
[18] = system: NCI-H460 lung
[19] = system: T-47D breast
[20] = system: SNB-19 CNS
[21] = system: K-562 leukemia
[22] = system: SF-539 CNS
[23] = system: SN12C renal
[24] = system: SNB-75 CNS
[25] = system: NCI-H226 lung
[26] = system: SF-268 CNS
[27] = system: HCT-15 colon
[28] = system: BT-549 breast
[29] = system: SK-OV-3 ovarian
[30] = system: OVCAR-4 ovarian
[31] = system: HS 578T breast
[32] = system: MALME-3M melanoma
[33] = system: RPMI-8226 leukemia
[34] = system: HOP-92 NSCLC
[35] = system: NCI/ADR-RES ovarian
[36] = system: OVCAR-3 ovarian
[37] = system: SR leukemia
[38] = system: MDA-MB-435
[39] = system: 786-0 renal
[40] = system: NCI-H23 lung
[41] = system: HT29 colon
[42] = system: M14 melanoma
[43] = system: LOX IMVI melanoma
[44] = system: NCI-H522 lung
[45] = system: CAKI-1 renal
[46] = system: COLO 205 colon
[47] = system: U251 CNS
[48] = system: MOLT-4 leukemia
[49] = system: OVCAR-8 ovarian
[50] = system: HCC-2998 colon
[51] = system: DU-145 prostate
[52] = system: UACC-62 melanoma
[53] = system: SF-295 CNS
[54] = system: UACC-257 melanoma
[55] = system: PC-3 prostate

## CN(C)CCNC(=O)c1cccn2c(=O)c3cc4ccccc4cc3nc12
[1]
  GI50: 122 nM
  TGI: 667 nM
[2]
  GI50: 161 nM
  TGI: 1410 nM
[3]
  GI50: 100 nM
  TGI: 32600 nM
[4]
  GI50: 39.6 nM
  TGI: 2170 nM
[5]
  GI50: 316 nM
  TGI: 8840 nM
[6]
  GI50: 424 nM
  TGI: 2900 nM
[7]
  GI50: 203 nM
  TGI: 1320 nM
[8]
  GI50: 232 nM
  TGI: > 100000 nM
[9]
  GI50: 98.1 nM
  TGI: 286 nM
[10]
  GI50: 360 nM
  TGI: 9730 nM
[11]
  GI50: 42.2 nM
  TGI: > 36400 nM
[12]
  GI50: 399 nM
  TGI: 9800 nM
[13]
  GI50: 217 nM
  TGI: 13700 nM
[14]
  GI50: 78.4 nM
  TGI: 554 nM
[15]
  GI50: 353 nM
[16]
  GI50: 131 nM
  TGI: 476 nM
[17]
  GI50: 51.5 nM
  TGI: 2080 nM
[18]
  GI50: 43.9 nM
  TGI: 283 nM
[19]
  GI50: 417 nM
  TGI: 19000 nM
[20]
  GI50: 185 nM
  TGI: 47700 nM
[21]
  GI50: 208 nM
  TGI: 40800 nM
[22]
  GI50: 161 nM
  TGI: 1600 nM
[23]
  GI50: 144 nM
  TGI: > 100000 nM
[24]
  GI50: 280 nM
  TGI: 1770 nM
[25]
  GI50: 145 nM
  TGI: 2990 nM
[26]
  GI50: 126 nM
  TGI: 3380 nM
[27]
  GI50: 200 nM
  TGI: > 100000 nM
[28]
  GI50: 680 nM
  TGI: 2830 nM
[29]
  GI50: 235 nM
  TGI: 22800 nM
[30]
  GI50: 323 nM
  TGI: 7670 nM
[31]
  GI50: 153 nM
  TGI: 1760 nM
[32]
  GI50: 116 nM
  TGI: 617 nM
[33]
  GI50: 240 nM
[34]
  GI50: 538 nM
  TGI: > 100000 nM
[35]
  GI50: 101 nM
  TGI: 468 nM
[36]
  GI50: 160 nM
  TGI: 573 nM
[37]
  GI50: 45.7 nM
  TGI: > 100000 nM
[38]
  GI50: 181 nM
  TGI: 1190 nM
[39]
  GI50: 110 nM
  TGI: 14100 nM
[40]
  GI50: 165 nM
  TGI: 1010 nM
[41]
  GI50: 69.1 nM
[42]
  GI50: 222 nM
  TGI: 1210 nM
[43]
  GI50: 62.4 nM
  TGI: 286 nM
[44]
  GI50: 182 nM
  TGI: 856 nM
[45]
  GI50: 71.1 nM
  TGI: 593 nM
[46]
  GI50: 97.3 nM
  TGI: 246 nM
[47]
  GI50: 114 nM
  TGI: 18000 nM
[48]
  GI50: 57.1 nM
  TGI: 8230 nM
[49]
  GI50: 57.7 nM
  TGI: > 69600 nM
[50]
  GI50: 241 nM
  TGI: 1060 nM
[51]
  GI50: 103 nM
  TGI: 391 nM
[52]
  GI50: 194 nM
  TGI: 1370 nM
[53]
  GI50: 67.9 nM
  TGI: 1100 nM
[54]
  GI50: 268 nM
  TGI: 1140 nM
[55]
  GI50: 194 nM
  TGI: > 22000 nM
